Drawing on patent US12344597B2, “Alkoxy-substituted pyridinyl derivatives as LPA1 receptor antagonists and their use in the treatment of fibrosis” (IDORSIA PHARMACEUTICALS LTD, priority 2018, dated 2025), this text covers IC50 for 31 molecules.

pIC50: −log10 of the molar value.

For this assay, the target named is human LPA1 receptor (Homo sapiens (Human), UniProt Q92633). The assay can be described thus: Beta-arrestin recruitment assay to determine IC50 values for human LPAR1. Format: cell-based. To be noted: antagonist mode, Tango EDG2-bla U2OS cells, LPA 18:1 500 nM final. The method, boiled down: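 Antagonist IC50 = concentration giving 50% inhibition of maximal LPA response. Read-out is beta-lactamase reporter activity after arrestin-protease recruitment in U2OS cells bearing LPA1-TEV-Gal4-VP16 construct; cells pre-incubated 20 h, 37 °C, 5% CO2.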
human LPA1 receptor, sequence (Q92633 whole entry, the tested form may be a part): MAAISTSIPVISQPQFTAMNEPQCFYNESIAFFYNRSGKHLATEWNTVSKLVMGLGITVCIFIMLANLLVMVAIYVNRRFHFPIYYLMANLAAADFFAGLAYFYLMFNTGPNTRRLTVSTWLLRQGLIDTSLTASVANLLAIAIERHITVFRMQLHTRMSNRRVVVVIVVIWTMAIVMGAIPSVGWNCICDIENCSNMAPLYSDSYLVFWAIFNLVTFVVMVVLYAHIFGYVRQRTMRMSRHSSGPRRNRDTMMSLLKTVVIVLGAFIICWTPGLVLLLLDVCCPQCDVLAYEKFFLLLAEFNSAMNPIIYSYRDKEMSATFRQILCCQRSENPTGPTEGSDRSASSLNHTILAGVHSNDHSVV
Background: Arrestin recruitment assays detect the binding of arrestin to an activated receptor.
`Cc1ccc(NC(=O)C2(c3ccccc3C(C)C)CN(C(=O)CN[C@@H](C)CO)C2)c(OC(F)F)n1` [Ex 12-59, (S)-N-(2-(difluoromethoxy)-6-methylpyridin-3-yl)-1-((R)-(1-hydroxypropan-2-yl)glycyl)-3-(2-isopropylphenyl)azetidine-3-carboxamide] gave a negative-log IC50 (pIC50) of 8.00. `Cc1ccc(NC(=O)C2(c3ccccc3C(C)C)CN(C(=O)CC(F)(F)C(=O)O)C2)c(OC(F)F)n1` [Ex 12-112, 4-(3-((2-(difluoromethoxy)-6-methylpyridin-3-yl)carbamoyl)-3-(2-isopropylphenyl)azetidin-1-yl)-2,2-difluoro-4-oxobutanoic acid] gave a pIC50 of 7.41. The result for `Cc1ccc(NC(=O)C2(c3ccccc3C(C)C)CN(C(=O)NC(C)(C)CC(=O)O)C2)c(OC(F)F)n1` [Ex 17-2, 3-(3-((2-(difluoromethoxy)-6-methylpyridin-3-yl)carbamoyl)-3-(2-isopropylphenyl)azetidine-1-carboxamido)-3-methylbutanoic acid] reads 7.92; that for `COC(=O)C(C)(C)OC(=O)N1CC(C(=O)Nc2ccc(C)nc2OC(F)F)(c2ccccc2C(C)C)C1` [Ex 14-6, 1-methoxy-2-methyl-1-oxopropan-2-yl 3-((2-(difluoromethoxy)-6-methylpyridin-3-yl)carbamoyl)-3-(2-isopropylphenyl)azetidine-1-carboxylate], 6.84.

The molecule `Cc1ccc(NC(=O)C2(c3ccccc3C(C)C)CCN(C(=O)Cc3cc(O)n[nH]3)CC2)c(OC(F)F)n1` [Ex 12-25, N-(2-(difluoromethoxy)-6-methylpyridin-3-yl)-1-(2-(3-hydroxy-1H-pyrazol-5-yl)acetyl)-4-(2-isopropylphenyl)piperidine-4-carboxamide] had a pIC50 of 7.82.

With `COC(=O)C1(COC(=O)N2CC(C(=O)Nc3ccc(C)nc3OC(F)F)(c3ccccc3C(C)C)C2)COC1` [Ex 14-13, (3-(methoxycarbonyl)oxetan-3-yl)methyl 3-((2-(difluoromethoxy)-6-methylpyridin-3-yl)carbamoyl)-3-(2-isopropylphenyl)azetidine-1-carboxylate], the pIC50 is 7.54. `Cc1ccc(NC(=O)C2(c3ccccc3C(C)C)CCNCC2)c(OC(F)F)n1` [Ex 4, N-(2-(difluoromethoxy)-6-methylpyridin-3-yl)-4-(2-isopropylphenyl)piperidine-4-carboxamide]: the pIC50 was 8.10. The result for `Cc1ccc(NC(=O)C2(c3ccccc3C(C)C)CN(CC(C)(C)C(=O)O)C2)c(OC(F)F)n1` [Ex 11-25, 3-(3-((2-(difluoromethoxy)-6-methylpyridin-3-yl)carbamoyl)-3-(2-isopropylphenyl)azetidin-1-yl)-2,2-dimethylpropanoic acid] reads 7.70. Molecule `Cc1ccc(NC(=O)C2(c3c(C)cccc3C(C)C)CNC2)c(OC(F)F)n1` [Ex 33, N-(2-(difluoromethoxy)-6-methylpyridin-3-yl)-3-(2-isopropyl-6-methylphenyl)azetidine-3-carboxamide] had a pIC50 of 7.48. The result for `Cc1ccc(NC(=O)C2(c3ccccc3C(C)C)CN(C(=O)[C@H]3C[C@H]3C(=O)O)C2)c(OC(F)F)n1` [Ex 12-97, (1R,2S)-2-(3-((2-(difluoromethoxy)-6-methylpyridin-3-yl)carbamoyl)-3-(2-isopropylphenyl)azetidine-1-carbonyl)cyclopropane-1-carboxylic acid] reads 7.89.

`Cc1ccc(NC(=O)C2(c3ccccc3C(C)C)CN(c3nnn[nH]3)C2)c(OC(F)F)n1` [Ex 20, N-(2-(difluoromethoxy)-6-methylpyridin-3-yl)-3-(2-isopropylphenyl)-1-(1H-tetrazol-5-yl)azetidine-3-carboxamide] had a pIC50 of 7.43. Take `Cc1ccc(NC(=O)C2(c3ccccc3C(C)C)CN(C(=O)[C@H](C)NC(=O)OC(C)(C)C)C2)c(OC(F)F)n1` [Ex 12-32, tert-butyl (S)-(1-(3-((2-(difluoromethoxy)-6-methylpyridin-3-yl)carbamoyl)-3-(2-isopropylphenyl)azetidin-1-yl)-1-oxopropan-2-yl)carbamate]: the pIC50 was 5.77.

As for `Cc1ccc(NC(=O)C2(c3ccccc3C(C)C)CN(C(=O)[C@H]3CNCCO3)C2)c(OC(F)F)n1` [Ex 12-42, (R)-N-(2-(difluoromethoxy)-6-methylpyridin-3-yl)-3-(2-isopropylphenyl)-1-(morpholine-2-carbonyl)azetidine-3-carboxamide], the negative logarithm of the IC50 (pIC50) was 7.15. Molecule `Cc1ccc(NC(=O)C2(c3ccccc3C(C)C)CN(C(=O)CNCC(C)(C)C(=O)O)C2)c(OC(F)F)n1` [Ex 45, 3-((2-(3-((2-(difluoromethoxy)-6-methylpyridin-3-yl)carbamoyl)-3-(2-isopropylphenyl)azetidin-1-yl)-2-oxoethyl)amino)-2,2-dimethylpropanoic acid] had a negative-log IC50 (pIC50) of 7.20. `COC(=O)CCC(=O)N1CC(C(=O)Nc2ccc(Cl)nc2OC)(c2ccccc2C(C)C)C1` [Ex 12-69, methyl 4-(3-((6-chloro-2-methoxypyridin-3-yl)carbamoyl)-3-(2-isopropylphenyl)azetidin-1-yl)-4-oxobutanoate] had a pIC50 of 6.64. Compared with the last molecule, the pIC50 is 0.56 log units lower.

In turn, `Cc1ccc(NC(=O)C2(c3ccccc3C(C)C)CN(CCC3(C(=O)O)CCC3)C2)c(OC(F)F)n1` [Ex 11-73, 1-(2-(3-((2-(difluoromethoxy)-6-methylpyridin-3-yl)carbamoyl)-3-(2-isopropylphenyl)azetidin-1-yl)ethyl)cyclobutane-1-carboxylic acid] showed a pIC50 of 7.34. Compared with the last molecule, the pIC50 is 0.70 log units higher. The result for `Cc1ccc(NC(=O)C2(c3ccccc3C3CCCCC3)CNC2)c(OC(F)F)n1` [Ex 27, 3-(2-cyclohexylphenyl)-N-(2-(difluoromethoxy)-6-methylpyridin-3-yl)azetidine-3-carboxamide] reads 7.89. Molecule `COC(=O)C1(CS(=O)(=O)N2CC(C(=O)Nc3ccc(C)nc3OC(F)F)(c3ccccc3C(C)C)C2)COC1` [Ex 13-15, methyl 3-(((3-((2-(difluoromethoxy)-6-methylpyridin-3-yl)carbamoyl)-3-(2-isopropylphenyl)azetidin-1-yl)sulfonyl)methyl)oxetane-3-carboxylate] showed a pIC50 of 6.55. Against the preceding molecule, the pIC50 is 1.34 log units lower. Turning to `COCCN(CC(=O)O)CC(=O)N1CC(C(=O)Nc2ccc(C)nc2OC(F)F)(c2ccccc2C(C)C)C1` [Ex 55], the pIC50 is 7.36.

In turn, `Cc1ccc(NC(=O)C2(c3ncccc3C(C)C)CN(C(=O)CCC(=O)O)C2)c(OC(F)F)n1` [Ex 61, 4-(3-((2-(difluoromethoxy)-6-methylpyridin-3-yl)carbamoyl)-3-(3-isopropylpyridin-2-yl)azetidin-1-yl)-4-oxobutanoic acid] gave a pIC50 of 7.15. Regarding `Cc1ccc(NC(=O)C2(c3ccccc3C(C)C)CN(C(=O)NC(C)(C)C(=O)O)C2)c(OC(F)F)n1` [Ex 17-13, 2-(3-((2-(difluoromethoxy)-6-methylpyridin-3-yl)carbamoyl)-3-(2-isopropylphenyl)azetidine-1-carboxamido)-2-methylpropanoic acid], the pIC50 was 7.60. Compared with the last molecule, the pIC50 is 0.45 log units higher. For the molecule `Cc1ccc(NC(=O)C2(c3ccccc3C(C)C)CN(c3ncc(C(=O)O)o3)C2)c(OC(F)F)n1` [Ex 18-32, 2-(3-((2-(difluoromethoxy)-6-methylpyridin-3-yl)carbamoyl)-3-(2-isopropylphenyl)azetidin-1-yl)oxazole-5-carboxylic acid], the pIC50 is 7.47. This pIC50 and that of the molecule before are within 0.2 log units of each other. `COc1nc(Cl)ccc1NC(=O)C1(c2ccccc2C(C)C)CNC1` [Ex 5, N-(6-chloro-2-methoxypyridin-3-yl)-3-(2-isopropylphenyl)azetidine-3-carboxamide] showed a pIC50 of 6.23. This pIC50 lies 1.24 log units lower than the previous one. In turn, `Cc1ccc(NC(=O)C2(c3ccccc3C(C)C)CN(CCCC(C)(C)N)C2)c(OC(F)F)n1` [Ex 11-94, 1-(4-amino-4-methylpentyl)-N-(2-(difluoromethoxy)-6-methylpyridin-3-yl)-3-(2-isopropylphenyl)azetidine-3-carboxamide] had a pIC50 of 7.19. Turning to `Cc1ccc(NC(=O)C2(c3ccccc3C(C)C)CN(C(=O)C3(C(=O)O)CNC3)C2)c(OC(F)F)n1` [Ex 12-114, 3-(3-((2-(difluoromethoxy)-6-methylpyridin-3-yl)carbamoyl)-3-(2-isopropylphenyl)azetidine-1-carbonyl)azetidine-3-carboxylic acid], the pIC50 was 5.57. `Cc1ccc(NC(=O)C2(c3ccccc3C(C)C)CN(C(=O)Cn3cnnc3)C2)c(OC(F)F)n1` [Ex 12-23, 1-(2-(4H-1,2,4-triazol-4-yl)acetyl)-N-(2-(difluoromethoxy)-6-methylpyridin-3-yl)-3-(2-isopropylphenyl)azetidine-3-carboxamide] showed a pIC50 of 7.68. The value for `CCOC(=O)CCN1CC(C(=O)Nc2ccc(C)nc2OC(F)F)(c2ccccc2C(C)C)C1` [Ex 11-13, ethyl 3-(3-((2-(difluoromethoxy)-6-methylpyridin-3-yl)carbamoyl)-3-(2-isopropylphenyl)azetidin-1-yl)propanoate] was 7.80; that for `COC(=O)C1(CCCN2CC(C(=O)Nc3ccc(C)nc3OC(F)F)(c3ccccc3C(C)C)C2)CC1` [Ex 11-70, methyl 1-(3-(3-((2-(difluoromethoxy)-6-methylpyridin-3-yl)carbamoyl)-3-(2-isopropylphenyl)azetidin-1-yl)propyl)cyclopropane-1-carboxylate] was 7.16. In the case of `CC(C)c1ccccc1C1(C(=O)Nc2cccnc2OC(F)F)CN(S(=O)(=O)CCC(=O)O)C1` [Ex 13-10, 3-((3-((2-(difluoromethoxy)pyridin-3-yl)carbamoyl)-3-(2-isopropylphenyl)azetidin-1-yl)sulfonyl)propanoic acid], the pIC50 is 7.70. In the case of `Cc1ccc(NC(=O)C2(c3ccccc3C(C)C)CN(CC(=O)O)C2)c(OC(F)F)n1` [Ex 11-12, 2-(3-((2-(difluoromethoxy)-6-methylpyridin-3-yl)carbamoyl)-3-(2-isopropylphenyl)azetidin-1-yl)acetic acid], the negative logarithm of the IC50 (pIC50) is 7.66. Take `CCOC(=O)CC(C)(C)CN1CC(C(=O)Nc2ccc(C)nc2OC(F)F)(c2ccccc2C(C)C)C1` [Ex 11-32, ethyl 4-(3-((2-(difluoromethoxy)-6-methylpyridin-3-yl)carbamoyl)-3-(2-isopropylphenyl)azetidin-1-yl)-3,3-dimethylbutanoate]: the pIC50 is 6.09.

Usually pIC50 stands for the IC50 on a negative log10 scale, so that one unit is a factor of ten.
